In US6150414A, “Compositions and methods for treating viral infections” (priority 1992, dated 2000):
Where “and” joins values, the source holds several entries; their conditions need not be identical. Identical values can stand only once. Like-named read-outs stand apart in the source and are kept apart here.

System: Friend Leukemia Virus
Assay: Inhibition of Friend Leukemia Virus-induced splenomegaly in mice, compounds intraperitoneally 24 hours after virus (Example 1(a))
Assay type: in vivo, BALB/c mice
Design: Actual Spleen Weight / Average Spleen Weight: unit not given here
Conditions: for Actual Spleen Weight: single animal; for Pooled Average % Inhibition: pooled over 50, 100, 200, 2 × 100 micrograms; for inhibition in vivo at 0.1 mg / inhibition in vivo at 0.05 mg / inhibition in vivo at 0.2 mg: Mus musculus, ip
Excerpt: The effects of compositions according to the present invention on infection of mammals with Friend Leukemia Virus (FV) were examined.
Friend Leukemia Virus is an aggressive retrovirus which induces an acute erythroleukemia in sensitive strains of mice such as BALB/c and NIH swiss mice as described in Friend, C. J., Exp. Med. 105: 307-324, 1957; Friend, C. et al. Proc. Natl. Acad. Sci. USA 68: 378-383, 1971; Friend, C. et al. Natl. Cancer Inst. Mongr. 22: 508-552, 1966. The malignant transformation is the result of the combined activities of the Spleen Focus Forming Virus (SFFV) and the ecotropic Murine Friend Leukemia Helper Virus (F-MuLV). The acute erythroleukemia is characterized by hepatosplenomegaly (a marked increase in the size of the spleen and liver) and a severe anemia.
Friend Leukemia Virus was prepared by homogenizing the enlarged spleen of a mouse previously infected with FV, 10 days after intravenous virus injection. The spleen was homogenized in phosphate buffered saline in a volume equal to ten times the weight of the isolated spleen.
The effects of compositions according to the present invention on the increase in spleen size (splenomegaly) of BALB/c mice (Jackson Labs, Bar Harbor, ME) was examined. In these experiments, the virus (10^6 focus forming units--FFU) was inoculated intravenously and 100 micrograms of the compounds indicated in Table II were administered to the mice intraperitoneally 24 hours later. Each compound was administered once to two mice. The animals were sacrificed ten days later and their spleens weighed.
The present assay has been developed from similar assays using hypericin or pseudohypericin and employing higher numbers of experimental animals per group (e.g. 4 animals). It was discovered however that the specificity and sensitivity of this assay are such that an experimental group of two animals is of more than adequate predictive value.
As used in Table II (and subsequent Tables of this Example l(a) and (b), "average percent inhibition" is calculated as follows: [formula] wherein "ASWNC" designates "average spleen weight of negative control"; "ASWE" designates "average spleen weight of experimental (treated) subject"; and "ASWPC" designates "average spleen weight of positive control". Average spleen weight is the numerical average of spleen weights of each experimental group (in Table II each such group includes two members).
In these experiments, the virus (10^6 focus forming units--FFU) was inoculated intravenously, and the indicated doses of the antiviral compounds of this invention were administered to the BALB/c mice intraperitoneally 24 hours later. The animals were then sacrificed ten days later and their spleens weighed.
Pseudohypericin was diluted in phosphate buffered saline with 1% ethanol.
An expanded series of experiments was next performed in which various concentrations (i.e. 50, 100, 200 and 2×100, i.e., 100 micrograms administered twice) of a different set of PAC compounds (numbers 16-29 and 30-36 in Table III below) were administered intraperitoneally each according to the same protocol described above. Compounds 16-29 all had 3-5 fused, aromatic rings and no side groups except for oxygen or hydroxyl groups, whereas compounds 30-36 all had 3 fused aromatic rings and side chains selected from the group of oxygen, hydroxyl and methyl.
When 2 doses of the compounds were given, the second dose was administered 24-48 hours after the first injection. The animals were infected and splenomegaly determined as above for the compounds in Table II. In Table III, "pooled average percent inhibition" is calculated by adding the average percent inhibition for each experiment with the same compound and dividing the sum by the number of experiments (i.e. the number 4). […]

[1] = dose 2 × 100 (micrograms) i.p., second dose 24-48 hours later, Table III
[2] = dose 2 × 100 (micrograms) i.p., Table III
[3] = dose 50 (micrograms) i.p., Table III
[4] = dose 100 (micrograms) i.p., Table III
[5] = dose 200 (micrograms) i.p., Table III
[6] = 100 micrograms i.p. once, 24 h after FV, Table II
[7] = 24 h, read-out: Average % Inhibition, 100 micrograms i.p. once, 24 h after FV, Table II
[8] = dose 2 × 100 (micrograms) i.p., Table III, read-out: Average Perdosage % Inhibition
[9] = dose 50 (micrograms) i.p., Table III, read-out: Average Perdosage % Inhibition
[10] = dose 100 (micrograms) i.p., Table III, read-out: Average Perdosage % Inhibition
[11] = dose 200 (micrograms) i.p., Table III, read-out: Average Perdosage % Inhibition
[12] = read-out: Average Perdosage % Inhibition, dose 2 × 100 (micrograms) i.p., Table III
[13] = read-out: Average Perdosage % Inhibition, dose 50 (micrograms) i.p., Table III
[14] = read-out: Average Perdosage % Inhibition, dose 100 (micrograms) i.p., Table III
[15] = read-out: Average Perdosage % Inhibition, dose 200 (micrograms) i.p., Table III

## Phenylanthracene [Compound 18]
[1]
  Actual Spleen Weight: 1.4116 and 1.0222
[2]
  Average Perdosage % Inhibition: 26%
  Average Spleen Weight: 1.2169
[3]
  Average Perdosage % Inhibition: 28%
  Average Spleen Weight: 1.1803
  Actual Spleen Weight: 1.1141 and 1.2464
[4]
  Average Perdosage % Inhibition: 3%
  Average Spleen Weight: 1.554
  Actual Spleen Weight: 1.6206 and 1.4902
[5]
  Average Perdosage % Inhibition: 18%
  Average Spleen Weight: 1.3296
  Actual Spleen Weight: 1.3797 and 1.2794
Table III
  Pooled Average % Inhibition: 19%

## O=C1c2ccccc2-c2ccc3c4ccc5c6c(ccc(c7ccc1c2c73)c64)-c1ccccc1C5=O [Compound 3, Isoviolanthrone]
[6]
  Average % Inhibition: 41.5%
  Average Spleen Weight: 0.5001
  Actual Spleen Weight: 0.5147 and 0.4855

## O=C1c2ccccc2-c2cc(O)c3c4c(O)cc5c6c(ccc(c7ccc1c2c73)c64)C(=O)c1ccccc1-5 [Compound 4, 16,17-Dihydroxydibenzanthrone]
[6]
  Average % Inhibition: 50.9%
  Average Spleen Weight: 0.4194
  Actual Spleen Weight: 0.4151 and 0.4234

## c1cc2cccc3c2c(c1)c1c2c4cccc5cccc(c54)c2c2c4cccc5cccc(c54)c2c31 [Compound 1, Decacyclene]
[6]
  Average % Inhibition: 57.5%
  Average Spleen Weight: 0.3636
  Actual Spleen Weight: 0.3940 and 0.3331
Example 1(a)
  inhibition of FV-induced splenomegaly / anti-retroviral activity: significantly inhibited FV-induced splenomegaly

## Cc1cc2ccc3ccc4ccccc4c3c2c2c1ccc1ccccc12 [Compound 11, 3-Methylphenanthro(3,4-C)Phenanthrene]
[6]
  Average Spleen Weight: 0.4235
[7]
  inhibition in vivo at 0.1 mg: 50.5%

## O=C1c2ccc(O)cc2C(=O)c2ccc(O)cc21 [Compound 32, Anthraflavic acid]
[8]
  inhibition in vivo at 0.1 mg: 60%
[9]
  inhibition in vivo at 0.05 mg: 26%
[10]
  inhibition in vivo at 0.1 mg: 49%
[11]
  inhibition in vivo at 0.2 mg: 64%
[2]
  Average Spleen Weight: 0.9325
[3]
  Average Spleen Weight: 1.5718
[4]
  Average Spleen Weight: 1.1542
[5]
  Average Spleen Weight: 0.8593
Table III
  Pooled Average % Inhibition: 50%

## C=Cc1c2ccccc2cc2ccccc12 [Compound 29, 9-Vinylanthracene]
[12]
  inhibition in vivo at 0.1 mg: 15%
[13]
  inhibition in vivo at 0.05 mg: 4%
[14]
  inhibition in vivo at 0.1 mg: 26%
[15]
  inhibition in vivo at 0.2 mg: 21%
[1]
  Actual Spleen Weight: 1.3747
[2]
  Average Spleen Weight: 1.3747
[3]
  Average Spleen Weight: 1.6517
[4]
  Average Spleen Weight: 1.2199
[5]
  Average Spleen Weight: 1.2933
  Actual Spleen Weight: 1.2933
Table III
  Pooled Average % Inhibition: 14%

## c1cc2c3c(ccc4c3c1CCC4)CCC2 [Compound 23, 1,2,3,6,7,8-Hexahydropyrene]
[8]
  inhibition in vivo at 0.1 mg: 32%
[9]
  inhibition in vivo at 0.05 mg: 26%
[10]
  inhibition in vivo at 0.1 mg: 6%
[11]
  inhibition in vivo at 0.2 mg: 34%
[2]
  Average Spleen Weight: 1.1281
[3]
  Average Spleen Weight: 1.2092
[4]
  Average Spleen Weight: 1.5131
[5]
  Average Spleen Weight: 1.0961
Table III
  Pooled Average % Inhibition: 25%

## CC1=CC2CCc3ccc4ccccc4c3C2c2c1ccc1ccccc21 (centres unmarked) [Compound 12, 4A,5,6,12C-Tetrahydro-3-Methylphenanthro (3,4-C)phenanthrene]
[6]
  Average Spleen Weight: 0.4531
[7]
  inhibition in vivo at 0.1 mg: 47.1%

## c1ccc2c(c1)c1ccccc1c1ccccc21 [Compound 19, Triphenylene]
[12]
  inhibition in vivo at 0.1 mg: 13%
[13]
  inhibition in vivo at 0.05 mg: 37%
[14]
  inhibition in vivo at 0.1 mg: 4%
[15]
  inhibition in vivo at 0.2 mg: 13%
[2]
  Average Spleen Weight: 1.4063
[3]
  Average Spleen Weight: 1.0499
[4]
  Average Spleen Weight: 1.5345
[5]
  Average Spleen Weight: 1.3994
Table III
  Pooled Average % Inhibition: 17%

## c1ccc2c(c1)ccc1ccccc12 [Compound 17, Phenanthrene]
[8]
  inhibition in vivo at 0.1 mg: 36%
[9]
  inhibition in vivo at 0.05 mg: 31%
[10]
  inhibition in vivo at 0.1 mg: 21%
[11]
  inhibition in vivo at 0.2 mg: 17%
[2]
  Average Spleen Weight: 1.0683
[3]
  Average Spleen Weight: 1.1350
[4]
  Average Spleen Weight: 1.2864
[5]
  Average Spleen Weight: 1.3501
Table III
  Pooled Average % Inhibition: 26%
